Experimental data reported in patent US11040976B2, “Substrate selective inhibitors of insulin-degrading enzyme (IDE) and uses thereof” (President and Fellows of Harvard College, priority 2015, dated 2021).

Biological target: T1, human IDE Ala479Leu (Homo sapiens, UniProt P14735, A479L)
T1 construct: N-His6-tagged human IDE42-1019 construct was introduced in the expression plasmid pTrcHis-A; His6 (N); made in house; host or cells: E. coli Rosetta 2 (DE3) pLysS
T1 sequence (P14735 42-1019 A479L): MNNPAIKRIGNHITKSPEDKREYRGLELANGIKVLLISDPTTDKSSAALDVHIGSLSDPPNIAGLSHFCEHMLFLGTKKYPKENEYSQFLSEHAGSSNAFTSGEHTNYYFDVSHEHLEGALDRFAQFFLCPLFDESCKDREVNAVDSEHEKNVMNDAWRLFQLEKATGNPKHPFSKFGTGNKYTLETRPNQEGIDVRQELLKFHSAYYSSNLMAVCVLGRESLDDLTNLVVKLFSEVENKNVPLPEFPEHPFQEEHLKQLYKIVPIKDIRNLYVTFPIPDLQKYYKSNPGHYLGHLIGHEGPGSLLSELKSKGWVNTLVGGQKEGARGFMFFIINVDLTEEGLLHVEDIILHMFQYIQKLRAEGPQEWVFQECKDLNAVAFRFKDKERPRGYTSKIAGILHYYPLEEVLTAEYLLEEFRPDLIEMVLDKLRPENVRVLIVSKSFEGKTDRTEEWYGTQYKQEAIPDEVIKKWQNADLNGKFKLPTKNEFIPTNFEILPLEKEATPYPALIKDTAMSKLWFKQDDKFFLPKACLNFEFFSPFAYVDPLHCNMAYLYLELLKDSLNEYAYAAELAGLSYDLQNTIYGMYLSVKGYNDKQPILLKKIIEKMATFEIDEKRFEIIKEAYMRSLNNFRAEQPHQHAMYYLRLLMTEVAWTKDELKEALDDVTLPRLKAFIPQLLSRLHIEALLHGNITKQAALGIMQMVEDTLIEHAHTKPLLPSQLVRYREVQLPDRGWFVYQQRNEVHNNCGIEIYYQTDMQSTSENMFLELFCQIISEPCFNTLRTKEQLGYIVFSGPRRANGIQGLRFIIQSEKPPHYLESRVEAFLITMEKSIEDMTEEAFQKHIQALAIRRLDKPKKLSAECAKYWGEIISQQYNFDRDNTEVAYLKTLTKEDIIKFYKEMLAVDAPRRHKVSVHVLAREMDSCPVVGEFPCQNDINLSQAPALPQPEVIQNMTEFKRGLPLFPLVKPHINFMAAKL
Assay: Activity assay of mutant human IDE variant A479L with IDE inhibitors
Type: biochemical
Source text: N-His6-tagged human IDE42-1019 construct was introduced in the expression plasmid pTrcHis-A (Invitrogen) using primers for uracil-specific excision reactions (USER) by Taq (NEB) and Pfu polymerases (PfuTurbo CX®, Agilent), as described in more detail in Maianti et al. (Nature (2014), 511, 94-98), which is incorporated by reference herein. The IDE gene was amplified with the primers 5′-[…]-dU-[…] (SEQ ID NO: 26) and 5′-[…] G-dU-[…] (SEQ ID NO: 27) (underlined sequences represent overhangs, and italics highlight the PCR priming sequence). Similarly, the pTrcHis-A vector was amplified for USER cloning with the primers 5′-[…]-dU-[…] (SEQ ID NO: 28) and 5′-[…]-dU-[…] (SEQ ID NO: 29). Mutant IDE constructs were generated by amplifying the full vector construct with USER cloning primers introducing a mutant overhang (see Table E6).
Recombinant His6-tagged proteins were purified by Ni(II)-affinity chromatography (IMAC sepharose beads, GE Healthcare®) according to the manufacturer's instructions. The cell pellets were re-suspended in pH 8.0 buffer containing 50 mM phosphate, 300 mM NaCl, 10 mM imidazole, 1% Triton X-100 and 1 mM tris(2-carboxyethyl)phosphine hydrochloride (TCEP), and were lysed by probe sonication for 4 minutes at <4° C., followed by clearing of cell debris by centrifugation at 10,000 g for 25 minutes at 4° C. […]

SMILES: NCCCC[C@@H]1NC(=O)/C=C/C(=O)N[C@H](C(N)=O)CCCCNC(=O)[C@@H](Cc2ccc(C(=O)c3ccccc3)cc2)NC(=O)[C@H](CC2CCCCC2)NC1=O [6bK, reference compound]
- effect of Ala479Leu mutation on inhibition of IDE: blocks 6bK from inhibiting IDE
